Reference: paper PMC6804466 (Acta Pharmaceutica Sinica. B, 2019)
Marks after values point to notes of the source that are not given here.

Legend:
[1] = Imp-induced nephrotoxicity in rabbits; type: in vivo, rabbit; settings: for Imp-induced acute structural damage of rabbit kidney after coadministration: Imp 200 mg/kg i.v. plus Cil 200 mg/kg or Prb 50 mg/kg
[2] = system: hOAT3-HEK293 cells; test: Cytotoxicity of Imp, CCK-8 assay, hOAT3-HEK293 cells; type: cell-based, human; settings: 24 h; for Survival rate of hOAT3-HEK293 cells with Imp in the presence of Cil or Prb: Imp 1 mmol/L plus the named inhibitor 200 μmol/L
[3] = system: Mock-HEK293 cells; test: Cytotoxicity of Imp, CCK-8 assay, Mock-HEK293 cells; type: cell-based, human; settings: 24 h; for Effect of Cil or Prb on the survival rate of Mock cells treated with Imp: Imp 0–1 mmol/L plus the named inhibitor 200 μmol/L
[4] = calculated from maximum plasma concentration and plasma protein binding
[5] = human; cited from earlier work
[6] = cited from earlier work
[7] = molecular target: T1, hOAT1 (Homo sapiens, UniProt Q4U2R8); test: Imp uptake by hOAT1-HEK293 cells; type: cell-based; settings: 100 μmol/L, 10 min, with or without Prb 200 μmol/L
T1 sequence (Q4U2R8 1-563): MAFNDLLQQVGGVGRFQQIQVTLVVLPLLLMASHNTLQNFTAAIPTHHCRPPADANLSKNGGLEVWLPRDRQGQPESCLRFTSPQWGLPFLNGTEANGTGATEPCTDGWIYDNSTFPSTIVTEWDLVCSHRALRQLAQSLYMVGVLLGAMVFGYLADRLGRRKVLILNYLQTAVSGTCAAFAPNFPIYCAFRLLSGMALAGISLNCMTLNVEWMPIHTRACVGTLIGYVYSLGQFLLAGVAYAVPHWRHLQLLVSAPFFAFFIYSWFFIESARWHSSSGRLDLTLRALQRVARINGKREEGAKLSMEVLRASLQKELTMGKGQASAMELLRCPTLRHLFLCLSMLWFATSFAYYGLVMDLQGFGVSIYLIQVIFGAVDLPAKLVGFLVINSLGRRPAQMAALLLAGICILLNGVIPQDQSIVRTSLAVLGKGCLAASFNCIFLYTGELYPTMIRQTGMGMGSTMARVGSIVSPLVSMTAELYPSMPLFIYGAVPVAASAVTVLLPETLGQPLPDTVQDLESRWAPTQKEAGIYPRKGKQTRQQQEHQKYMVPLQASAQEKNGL

[8] = Pharmacokinetics of Imp in rabbits; type: in vivo; settings: male, New Zealand white, rabbit, iv, 200 mg/kg
[9] = molecular target: T2, hOAT3 (Homo sapiens, UniProt Q8TCC7); settings: 100 μmol/L, 10 min, with or without Prb 200 μmol/L
T2 sequence (Q8TCC7 1-542): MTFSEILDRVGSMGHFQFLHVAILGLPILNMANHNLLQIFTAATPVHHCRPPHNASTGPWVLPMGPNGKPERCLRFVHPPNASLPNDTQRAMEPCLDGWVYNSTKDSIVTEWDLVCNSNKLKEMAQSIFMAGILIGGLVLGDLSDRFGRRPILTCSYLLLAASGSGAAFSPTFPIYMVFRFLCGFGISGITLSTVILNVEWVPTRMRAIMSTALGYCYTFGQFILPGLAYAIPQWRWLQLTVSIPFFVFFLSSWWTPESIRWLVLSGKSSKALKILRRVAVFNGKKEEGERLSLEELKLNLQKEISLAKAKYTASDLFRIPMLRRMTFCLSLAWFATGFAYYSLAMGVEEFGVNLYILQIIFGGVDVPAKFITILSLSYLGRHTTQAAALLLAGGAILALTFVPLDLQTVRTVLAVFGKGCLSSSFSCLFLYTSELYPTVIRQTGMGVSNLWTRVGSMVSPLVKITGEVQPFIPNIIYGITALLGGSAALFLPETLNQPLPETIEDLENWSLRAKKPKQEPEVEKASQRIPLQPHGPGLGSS

[10] = system: hOAT1-HEK293 cells; test: Cytotoxicity of Imp, CCK-8 assay, hOAT1-HEK293 cells; type: cell-based, human; settings: Imp alone 1 mmol/L, 24 h
[11] = system: raOATs; test: Imp uptake by rabbit primary proximal tubule cells; type: cell-based; settings: Imp 100 μmol/L, 10 min, vs si-Control cells
[12] = Imp 200 mg/kg i.v. with or without Cil 200 mg/kg or Prb 50 mg/kg, 48 h

## CCCN(CCC)S(=O)(=O)c1ccc(C(=O)O)cc1 [Prb, probenecid]
[1]; 48 h
  Imp-induced acute structural damage of rabbit kidney after coadministration: significantly reduced
[2]
  Survival rate of hOAT3-HEK293 cells with Imp in the presence of Cil or Prb: 76.2%
[3]
  Effect of Cil or Prb on the survival rate of Mock cells treated with Imp: little effect

## CC1(C)C[C@@H]1C(=O)N/C(=C\CCCCSC[C@H](N)C(=O)O)C(=O)O [Cil, cilastatin]
[1]; 48 h
  Imp-induced acute structural damage of rabbit kidney after coadministration: significantly reduced
[4]
  Peak level of free Cil in human: about 140 μmol/L
[5]
  Plasma protein binding of Cil: approximately 40%
[6]; human
  Maximum clinical plasma concentration of Cil: 88 µg/mL
[2]
  Survival rate of hOAT3-HEK293 cells with Imp in the presence of Cil or Prb: 66.3%
[3]
  Effect of Cil or Prb on the survival rate of Mock cells treated with Imp: little effect

## C[C@@H](O)[C@H]1C(=O)N2C(C(=O)O)=C(SCCN=CN)C[C@H]12 [Imp, Imipenem]
[1]; Imp 200 mg/kg i.v. alone, 48 h
  Renal histology (HE and PAS staining): severe renal damage
[1]; Imp 200 mg/kg i.v. with or without Cil 200 mg/kg or Prb 50 mg/kg, 0 h (baseline)
  Body weight 0 h: 2.87 ± 0.24 kg
[1]; [12]
  Body weight 48 h: 2.69 ± 0.24 kg
  Kidney weight: 13.2 ± 1.5 g
  Kidney/body weight ratio: 4.81 ± 0.29 ^a g/kg
[7]
  Substrate of hOAT1 (uptake vs Mock cells, inhibited by Prb): substrates of hOAT1 and hOAT3
[8]; plasma
  AUC(0-t): 289 ± 48.7 µg·h/mL
  clearance: 11.9 mL/min/kg
  half-life: 58 ± 4.2 min
[8]; urine
  CL renal: 2.78 mL/min/kg
[9]
  Substrate of hOAT3 (uptake vs Mock cells, inhibited by Prb): substrates of hOAT1 and hOAT3
[10]
  Survival rate of hOAT1-HEK293 cells: 47.5%
[11]
  Increase in intracellular level of Imp in rPTCs transfected with si-DHP-I: 30%
[6]
  Renal excretion of Imp: ~70%
[2]; Imp alone 1 mmol/L
  Survival rate of hOAT3-HEK293 cells: 27.2%
[3]; Imp alone 1 mmol/L
  Survival rate of Mock-HEK293 cells: 85.8%
